Reference: US8529889B2, “Methods and compositions related to the modulation of intercellular junctions” (Massachusetts Institute of Technology, priority 2004, dated 2013)
Entries after “also recorded” stand apart in the source; their conditions may differ.

Key:
[1] = tested on: calu-3 human lung adenocarcinoma epithelial cells; assay: Tight junction (ZO-1) and actin filament disruption by immunofluorescence and confocal microscopy, calu-3; assay type: cell-based; conditions: calu-3 cells
Description: (§1) Heparinase III (hep III) was made as described previously (Godavarti R et al., 1996); heparinase I (hep I) was a generous gift from Momenta pharmaceuticals (Cambridge, Mass.); chondroitinase ABC (C-ABC) lyase was purchased from Seikagaku (East Falmouth, Mass.). Hep III was added to the apical side of the cells at a concentration of 10 μg/mL; hep I was added at a concentration of 6 μg/mL, and C-ABC was added at 50 μU/mL. The concentration of ethylene glycol tetra acetic acid (EGTA) (Sigma) used was 5 mM. All the enzymes and the EGTA were made up in serum free Eagle's Minimal Essential medium with 2 mM L-glutamine. Heparin solution was made up to a concentration of 15 mM in serum free media and added to the apical side of the cells after removing the cell medium. Ardeparin sodium and ardeparin calcium powder were added to cells at 6 mg/well, and ardeparin solution was made up to a final concentration of 18 mM.
(§2) Cells grown on glass coverslips were fixed with 10% buffered formalin for 10 min. Cells were then permeabilized with 0.5% Triton-100 (Sigma) in Tris Buffer Saline with 1% Tween-20 (TBST) for 15 min. at room temperature. Nonspecific antibody binding was blocked with 0.1% bovine serum albumin (BSA) for 30 min. at room temperature. The cells were incubated with primary antibody at room temperature for 4 hours and washed 3 times with PBS. The cells were then incubated in the appropriate secondary antibody for 1 hour in the dark at room temperature and washed 3 times with PBS.
Calu-3 cells were seeded on gelatin coated coverslips and were allowed to grow for about 4 to 5 days to about 80% confluency. UFH powder was added to the apical side of the cells using an insufflator to ensure homogenous distribution of the powder on the coverslip.

syndecan-4 = assay: Syndecan-4 ectodomain shedding, dot immunoassay, 16HBE14O- cells; assay type: cell-based, human; conditions: hep III 10 μg/mL, hep I 6 μg/mL, C-ABC 50 μU/mL
Description: as §1
(§3) Specificity and quantification of the dot immunoassay for shed syndecan-1 and -4 ectodomains has been previously described in detail (Subramanian et al., 1997). In brief, the conditioned media were diluted in buffer A (0.15 M NaCl buffered to pH 4.5 with 50 mM sodium acetate and with 0.1% Triton X-100) and applied to catonic polyvinylidine diflouride-based membranes (Immobilin-N) (Millipore, Bedford, Mass.) under mild vacuum in an immunodot apparatus (V&P Scientific, San Diego, Calif.). […]
(§4) Detection was by the ECL system (Amersham) as described by the manufacturer. Results were quantified by scanning the exposed membrane with a Kodak Image Station.
(§5) 16HBE14O-cells were grown to about 80% confluency in 6 well plates. […] To evaluate the changes in cell number, the cells were trypsinized and counted with a coulter-counter after incubation. […] The membranes were then incubated in mouse anti-syndecan-1 and in the appropriate secondary antibody and were developed and analyzed as described above. […]

[2] = tested on: MCF-7 (human mammary cancer) cells; assay: Tight junction disruption in MCF-7 cells; assay type: cell-based
Description: as §1, §2

[3] = tested on: caco-2 (human colon adenocarcinoma) cells; assay: Tight junction disruption in caco-2 cells; assay type: cell-based
Description: as §1, §2

syndecan-1 = assay: Syndecan-1 ectodomain shedding, dot immunoassay, 16HBE14O- cells; assay type: cell-based, human; conditions: hep III 10 μg/mL, hep I 6 μg/mL, C-ABC 50 μU/mL
Description: as §1, §3, §4, §5

[4] = tested on: 16HBE14O-human virally transformed bronchial epithelial cells; assay: Tight junction (ZO-1) disruption by immunofluorescence and confocal microscopy, 16HBE14O-; assay type: cell-based; conditions: 16HBE14O- cells; for disruption of ZO-1 / tight junctions (epithelial permeability): hep III 10 μg/mL, hep I 6 μg/mL, C-ABC 50 μU/mL, EGTA 5 mM, 20 min. at 37° C.
Description: as §1, §2
16HBE14O-cells were grown to confluency on fibronectin coated coverslips for 4 to 5 days after seeding. The cells were then incubated with hep III, hep I, C-ABC and EGTA made up to the final concentration described above for 20 min. at 37° C. Using the primary rabbit anti-ZO-1 antibody and the secondary goat anti-rabbit Texas Red antibody, the cells were analyzed by the immunofluorescence and confocal microscopy technique discussed above. […] Localization of the tight junction protein in untreated cells is also shown as a control.

## chondroitinase ABC [cABC]
[1]
  disruption of ZO-1 / tight junctions (epithelial permeability): more effect than Hep I
syndecan-4
  syndecan-4 ectodomain shedding: did not cause an increase in syndecan-4 ectodomain shedding
[2]
  tight junction disruption (epithelial permeability): Hep III had more effect on tight junction disruption than cABC and Hep I
[3]
  tight junction disruption (epithelial permeability): Hep III had more effect on tight junction disruption than cABC and Hep I
syndecan-1
  syndecan-1 ectodomain shedding: causes syndecan-1 ectodomain shedding
[4]
  disruption of ZO-1 / tight junctions (epithelial permeability): more pronounced effect than Hep III
[4]; listed as C-ABC
  disruption of ZO-1 / tight junctions (epithelial permeability): cause different amounts of disruption of the tight junctions

## O=C(O)CN(CCOCCOCCN(CC(=O)O)CC(=O)O)CC(=O)O [EGTA, ethylene glycol tetra acetic acid, reference compound]
[1]
  disruption of ZO-1 / tight junctions (epithelial permeability): caused a disruption of the junctional complex
  time for cell line to recover from the effect of the treatment: about 8 hours
[2]
  tight junction disruption (epithelial permeability): caused a disruption of the junctional complex
  time for cell line to recover from the effect of the treatment: about 8 hours
[3]
  tight junction disruption (epithelial permeability): caused a disruption of the junctional complex
  time for cell line to recover from the effect of the treatment: about 8 hours
[4]
  time for cell line to recover from the effect of the treatment: about 8 hours
  disruption of ZO-1 / tight junctions (epithelial permeability): caused a disruption of the junctional complex; also recorded: cause different amounts of disruption of the tight junctions

B1: heparinase I (protein, UniProt Q05819 22-384, looked up)
Heparin lyase I: QQKKSGNIPYRVNVQADSAKQKAIIDNKWVAVGINKPYALQYDDKLRFNGKPSYRFELKAEDNSLEGYAAGETKGRTELSYSYATTNDFKKFPPSVYQNAQKLKTVYHYGKGICEQGSSRSYTFSVYIPSSFPDNATTIFAQWHGAPSRTLVATPEGEIKTLSIEEFLALYDRMIFKKNIAHDKVEKKDKDGKITYVAGKPNGWKVEQGGYPTLAFGFSKGYFYIKANSDRQWLTDKADRNNANPENSEVMKPYSSEYKTSTIAYKMPFAQFPKDCWITFDVAIDWTKYGKEANTILKPGKLDVMMTYTKNKKPQKAHIVNQQEILIGRNDDDGYYFKFGIYRVGNSTVPVTYNLSGYSETAR
notes: Glycosaminoglycan-degrading enzyme; cleaves HSGAGs at the more sulfated, heparin-like regions
[1]
  disruption of ZO-1 / tight junctions (epithelial permeability): Hep III and cABC had more effect than Hep I
syndecan-4
  syndecan-4 ectodomain shedding: did not cause an increase in syndecan-4 ectodomain shedding
[2]
  tight junction disruption (epithelial permeability): Hep III had more effect on tight junction disruption than cABC and Hep I
[3]
  tight junction disruption (epithelial permeability): Hep III had more effect on tight junction disruption than cABC and Hep I
syndecan-1
  syndecan-1 ectodomain shedding: causes syndecan-1 ectodomain shedding
[4]
  disruption of ZO-1 / tight junctions (epithelial permeability): more pronounced effect than Hep III
[4]; listed as hep I
  disruption of ZO-1 / tight junctions (epithelial permeability): cause different amounts of disruption of the tight junctions

B2: heparinase III (protein, UniProt Q59289 25-659, looked up)
Heparin-sulfate lyase: QSSSITRKDFDHINLEYSGLEKVNKAVAAGNYDDAAKALLAYYREKSKAREPDFSNAEKPADIRQPIDKVTREMADKALVHQFQPHKGYGYFDYGKDINWQMWPVKDNEVRWQLHRVKWWQAMALVYHATGDEKYAREWVYQYSDWARKNPLGLSQDNDKFVWRPLEVSDRVQSLPPTFSLFVNSPAFTPAFLMEFLNSYHQQADYLSTHYAEQGNHRLFEAQRNLFAGVSFPEFKDSPRWRQTGISVLNTEIKKQVYADGMQFELSPIYHVAAIDIFLKAYGSAKRVNLEKEFPQSYVQTVENMIMALISISLPDYNTPMFGDSWITDKNFRMAQFASWARVFPANQAIKYFATDGKQGKAPNFLSKALSNAGFYTFRSGWDKNATVMVLKASPPGEFHAQPDNGTFELFIKGRNFTPDAGVFVYSGDEAIMKLRNWYRQTRIHSTLTLDNQNMVITKARQNKWETGNNLDVLTYTNPSYPNLDHQRSVLFINKKYFLVIDRAIGEATGNLGVHWQLKEDSNPVFDKTKNRVYTTYRDGNNLMIQSLNADRTSLNEEEGKVSYVYNKELKRPAFVFEKPKKNAGTQNFVSIVYPYDGQKAPEISIRENKGNDFEKGKLNLTLTINGKQQLVLVP
notes: Glycosaminoglycan-degrading enzyme; cleaves the less/unsulfated, heparan sulfate-like regions
[1]
  disruption of ZO-1 / tight junctions (epithelial permeability): more effect than Hep I
syndecan-4
  syndecan-4 ectodomain shedding: did not cause an increase in syndecan-4 ectodomain shedding
[2]
  tight junction disruption (epithelial permeability): more effect on tight junction disruption than cABC and Hep I
[3]
  tight junction disruption (epithelial permeability): more effect on tight junction disruption than cABC and Hep I
syndecan-1
  syndecan-1 ectodomain shedding: causes syndecan-1 ectodomain shedding
[4]
  disruption of ZO-1 / tight junctions (epithelial permeability): Hep I and cABC had more pronounced effect than Hep III
[4]; listed as hep III
  disruption of ZO-1 / tight junctions (epithelial permeability): cause different amounts of disruption of the tight junctions
